Test results as given in PubChem BioAssay (NCI).
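Values below derive from 48-hour exposures of cells grown in 96-well plates, with endpoints linearly interpolated between the two concentrations bracketing the appropriate inhibition level. TGI: concentration producing complete growth inhibition.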

Key:
Test in all cases: DTP human tumour cell line panel, 48 h
UACC-257 melanoma = system: UACC-257 melanoma
A498 renal = system: A498 renal
SK-MEL-28 melanoma = system: SK-MEL-28 melanoma
HCC-2998 colon = system: HCC-2998 colon
SNB-75 CNS = system: SNB-75 CNS
OVCAR-5 ovarian = system: OVCAR-5 ovarian
T-47D breast = system: T-47D breast
OVCAR-8 ovarian = system: OVCAR-8 ovarian
OVCAR-4 ovarian = system: OVCAR-4 ovarian
OVCAR-3 ovarian = system: OVCAR-3 ovarian
HCT-116 colon = system: HCT-116 colon
HT29 colon = system: HT29 colon
HL-60(TB) leukemia = system: HL-60(TB) leukemia
NCI-H226 lung = system: NCI-H226 lung
HOP-62 NSCLC = system: HOP-62 NSCLC
SF-539 CNS = system: SF-539 CNS
SK-MEL-2 melanoma = system: SK-MEL-2 melanoma
NCI-H460 lung = system: NCI-H460 lung
LOX IMVI melanoma = system: LOX IMVI melanoma
CAKI-1 renal = system: CAKI-1 renal
COLO 205 colon = system: COLO 205 colon
MOLT-4 leukemia = system: MOLT-4 leukemia
UACC-62 melanoma = system: UACC-62 melanoma
NCI-H23 lung = system: NCI-H23 lung
RXF 393 renal = system: RXF 393 renal
SNB-19 CNS = system: SNB-19 CNS
UO-31 renal = system: UO-31 renal
SF-295 CNS = system: SF-295 CNS
HOP-92 NSCLC = system: HOP-92 NSCLC
KM12 colon = system: KM12 colon
MALME-3M melanoma = system: MALME-3M melanoma
SK-OV-3 ovarian = system: SK-OV-3 ovarian
PC-3 prostate = system: PC-3 prostate
SR leukemia = system: SR leukemia
MCF7 breast = system: MCF7 breast
BT-549 breast = system: BT-549 breast
MDA-MB-435 = system: MDA-MB-435
RPMI-8226 leukemia = system: RPMI-8226 leukemia
HCT-15 colon = system: HCT-15 colon
IGROV1 ovarian = system: IGROV1 ovarian
K-562 leukemia = system: K-562 leukemia
786-0 renal = system: 786-0 renal
ACHN renal = system: ACHN renal
SK-MEL-5 melanoma = system: SK-MEL-5 melanoma
U251 CNS = system: U251 CNS
MDA-N = system: MDA-N
CCRF-CEM leukemia = system: CCRF-CEM leukemia
SW-620 colon = system: SW-620 colon
SF-268 CNS = system: SF-268 CNS
NCI/ADR-RES ovarian = system: NCI/ADR-RES ovarian
M14 melanoma = system: M14 melanoma
DU-145 prostate = system: DU-145 prostate
MDA-MB-231 breast = system: MDA-MB-231 breast
TK-10 renal = system: TK-10 renal
SN12C renal = system: SN12C renal
NCI-H522 lung = system: NCI-H522 lung
EKVX NSCLC = system: EKVX NSCLC
A549 NSCLC = system: A549 NSCLC
HS 578T breast = system: HS 578T breast

## CCC1(O)CC(O)c2c(O)c3c(c(O)c2C1C(=O)OC)C(=O)c1cccc(O)c1C3=O (stereo unspecified)
UACC-257 melanoma
  TGI: 21.8 µM
A498 renal
  TGI: 18.4 µM
SK-MEL-28 melanoma
  TGI: 75.4 µM
HCC-2998 colon
  TGI: 21.4 µM
SNB-75 CNS
  TGI: 18.5 µM
OVCAR-5 ovarian
  TGI: 21 µM
T-47D breast
  TGI: 32.8 µM
OVCAR-8 ovarian
  TGI: 5.88 µM
OVCAR-4 ovarian
  TGI: 13.9 µM
OVCAR-3 ovarian
  TGI: 8.63 µM
HCT-116 colon
  TGI: 11.7 µM
HT29 colon
  TGI: 14.1 µM
HL-60(TB) leukemia
  TGI: 6.07 µM
NCI-H226 lung
  TGI: 18.1 µM
HOP-62 NSCLC
  TGI: 16.6 µM
SF-539 CNS
  TGI: 14.8 µM
SK-MEL-2 melanoma
  TGI: 10.2 µM
NCI-H460 lung
  TGI: 14.2 µM
LOX IMVI melanoma
  TGI: 9.92 µM
CAKI-1 renal
  TGI: 15.3 µM
COLO 205 colon
  TGI: 7.65 µM
MOLT-4 leukemia
  TGI: 2.19 µM
UACC-62 melanoma
  TGI: 12.4 µM
NCI-H23 lung
  TGI: 24.4 µM
RXF 393 renal
  TGI: 23.5 µM
SNB-19 CNS
  TGI: 20.9 µM
UO-31 renal
  TGI: 13.2 µM
SF-295 CNS
  TGI: 10.7 µM
HOP-92 NSCLC
  TGI: 32.1 µM
KM12 colon
  TGI: 17.4 µM
MALME-3M melanoma
  TGI: 7.08 µM
SK-OV-3 ovarian
  TGI: > 36.1 µM
PC-3 prostate
  TGI: 13 µM
SR leukemia
  TGI: 5.91 µM
MCF7 breast
  TGI: 16.9 µM
BT-549 breast
  TGI: 34.8 µM
MDA-MB-435
  TGI: > 100 µM
RPMI-8226 leukemia
  TGI: > 23.1 µM
HCT-15 colon
  TGI: 21.1 µM
IGROV1 ovarian
  TGI: 12.1 µM
K-562 leukemia
  TGI: > 21.8 µM
786-0 renal
  TGI: 14.3 µM
ACHN renal
  TGI: 15.1 µM
SK-MEL-5 melanoma
  TGI: 6.39 µM
U251 CNS
  TGI: 16.6 µM
MDA-N
  TGI: 47.1 µM
CCRF-CEM leukemia
  TGI: 9.71 µM
SW-620 colon
  TGI: > 48.2 µM
SF-268 CNS
  TGI: 16.2 µM
NCI/ADR-RES ovarian
  TGI: 3.28 µM
M14 melanoma
  TGI: 14.1 µM
DU-145 prostate
  TGI: 21.8 µM
MDA-MB-231 breast
  TGI: 13 µM
TK-10 renal
  TGI: 24.3 µM
SN12C renal
  TGI: 17.3 µM
NCI-H522 lung
  TGI: 4.96 µM
EKVX NSCLC
  TGI: 6.65 µM
A549 NSCLC
  TGI: 14.2 µM
HS 578T breast
  TGI: 24.5 µM

## OC1(C(O)(c2ccc(-c3ccccc3)cc2)c2ccc(-c3ccccc3)cc2)CCCCC1
UACC-257 melanoma
  TGI: > 100 µM
A498 renal
  TGI: > 100 µM
SK-MEL-28 melanoma
  TGI: > 100 µM
HCC-2998 colon
  TGI: > 100 µM
SNB-75 CNS
  TGI: > 100 µM
OVCAR-5 ovarian
  TGI: > 100 µM
T-47D breast
  TGI: > 100 µM
OVCAR-8 ovarian
  TGI: > 100 µM
OVCAR-4 ovarian
  TGI: > 100 µM
OVCAR-3 ovarian
  TGI: > 100 µM
HCT-116 colon
  TGI: > 100 µM
HT29 colon
  TGI: > 100 µM
HL-60(TB) leukemia
  TGI: > 100 µM
NCI-H226 lung
  TGI: > 100 µM
HOP-62 NSCLC
  TGI: > 100 µM
SF-539 CNS
  TGI: > 100 µM
SK-MEL-2 melanoma
  TGI: > 100 µM
NCI-H460 lung
  TGI: > 100 µM
LOX IMVI melanoma
  TGI: > 100 µM
CAKI-1 renal
  TGI: > 100 µM
COLO 205 colon
  TGI: > 100 µM
MOLT-4 leukemia
  TGI: > 100 µM
UACC-62 melanoma
  TGI: > 100 µM
NCI-H23 lung
  TGI: > 100 µM
RXF 393 renal
  TGI: > 100 µM
SNB-19 CNS
  TGI: > 100 µM
UO-31 renal
  TGI: > 100 µM
SF-295 CNS
  TGI: > 100 µM
HOP-92 NSCLC
  TGI: > 100 µM
KM12 colon
  TGI: > 100 µM
SK-OV-3 ovarian
  TGI: > 100 µM
PC-3 prostate
  TGI: > 100 µM
SR leukemia
  TGI: > 100 µM
MCF7 breast
  TGI: > 100 µM
BT-549 breast
  TGI: > 100 µM
MDA-MB-435
  TGI: > 100 µM
RPMI-8226 leukemia
  TGI: > 100 µM
HCT-15 colon
  TGI: > 100 µM
IGROV1 ovarian
  TGI: > 100 µM
K-562 leukemia
  TGI: > 100 µM
786-0 renal
  TGI: > 100 µM
ACHN renal
  TGI: > 100 µM
SK-MEL-5 melanoma
  TGI: > 100 µM
U251 CNS
  TGI: > 100 µM
MDA-N
  TGI: > 100 µM
SW-620 colon
  TGI: > 100 µM
SF-268 CNS
  TGI: > 100 µM
NCI/ADR-RES ovarian
  TGI: > 100 µM
M14 melanoma
  TGI: > 100 µM
DU-145 prostate
  TGI: > 100 µM
MDA-MB-231 breast
  TGI: > 100 µM
TK-10 renal
  TGI: > 100 µM
SN12C renal
  TGI: > 100 µM
NCI-H522 lung
  TGI: > 100 µM
EKVX NSCLC
  TGI: > 100 µM
A549 NSCLC
  TGI: > 100 µM
HS 578T breast
  TGI: > 100 µM
